Measurements from patent US10052304B2, “Compositions and methods for cancer therapy” (UNIVERSITY OF IOWA RESEARCH FOUNDATION, priority 2015, dated 2018).
“Also recorded” adds a separate entry of the source.

Experiments:
OCI-MY5 = experiment: Colony formation on soft agar, OCI-MY5 myeloma cells; assay type: cell-based, human; details: 1 h treatment, colonies after 10-14 days
From the text: A two-layer agar system was used, and colonies were visualized after 10-14 days.

HBEpCs [1] = experiment: Intracellular H2O2 with PeroxyOrange-1, HBEpCs; assay type: cell-based, human; details: ascorbate 15 pmol cell^−1
Protocol: To visualize intracellular H2O2 levels, the selectively sensitive fluorescent probe PeroxyOrange-1 was utilized as previously described with modifications (Dickinson et al., 2010). 1×10^5 cells were plated and grown in their respective media for 48 h. The complete protocol was conducted in the dark with minimal ambient lighting. Cells were washed with PBS and incubated with 10 uM PO-1 in phenol red free RPMI supplemented with HBE growth supplements for 1 h at 37° C. Cells were then washed in PBS and placed back in phenol red free RPMI supplemented with HBE growth supplements. […] At times indicated, cells were placed on ice for the remainder of the protocol, washed, and trypsinized with phenol red free 0.5% trypsin. After 15 min, cells still attached were scraped and all cells were collected in 15 mL conical vials containing PBS+10% FBS to neutralize the trypsin reaction. Cells were spun at 1200 rpm for 5 min at 4° C., resuspended in 300-500 uL PBS and were run on a LSR II Flow Cytometer (BD Biosciences) with λex=561 nm, λem=585/20 nm. The mean fluorescence intensity (MFI) was analyzed (FlowJo™) and corrected for autoflourescence against unlabeled cells. Normalized MFI was calculated by comparing MFI for a given treatment group against control.

H1299 cells = experiment: Clonogenic survival assay, H1299 NSCLC cells; assay type: cell-based, human
Protocol: Treatment conditions for individual experiments are as described in the figure legends and summarized in the Supplemental Experimental Procedures.
1-2×10^5 cells were plated in 60 mm cell culture dishes and grown in their respective media for 48 h before exposed to experimental conditions. […] For AdGPx1 experiments, cells were supplemented with 50 nM sodium selenite following transduction and throughout clonogenic growth. […] After treatment, cells were washed with PBS and clonogenic assay was completed in their respective media. Briefly, floating and attached cells were collected and total cells per plate were counted. An experimentally derived number of cells were plated into each well of a 6-well cell culture plate in their respective media. For HEL92.1.7 suspension cells, cells were seeded in a top layer of 0.4% (w/v) agarose to allow for quantifiable colony formation. […] Normalized survival fractions were calculated by comparing plating efficiencies of each treatment group against the control group within a given experiment.

ETC complex IV = ETC complex IV activity after ascorbate exposure; assay type: cell-based, human; details: NSCLC cell lysates
Protocol: Exponentially growing cells were scraped and frozen as dry pellets until assayed for total activity. Aconitase activity was measured as the rate of appearance of NADPH (at 340 nm; Beckman DU 800 spectrophotometer, Brea, Calif.) for 45 min during the reaction of 200 μg total sample protein with 200 μM NADP^+ and 10 U isocitrate dehydrogenase as previously described (Case et al., 2011). Maximal ETC complex activity was measured as previously described (Birch-Machin et al., 1994). Complex I activity was quantified as the rate of rotenone-inhibitable NADH oxidation (320 nm; c=6.22 mM^−1 cm^−1). Complex II activity as the difference in the rate of DCIP reduction in the presence and absence of succinate (at 600 nm; ε=19.1 mM^−1 cm^−1). Complex IV activity was assayed as the rate of oxidation of cytochrome c ([…]; ε=19.6 mM^−1 cm^−1). Rates of activities were normalized to total protein by Lowry.
Exponentially growing cells were scraped and frozen as dry pellets until assayed for protein content (Lowry) and maximal ETC complex activity as previously described (Birch-Machin et al., 1994). Briefly, dry cell pellets were resuspended in 20 mM potassium phosphate buffer and sonicated 3×10 s each. Rates of activities were normalized to total protein. Complex I activity was quantified as the rate of rotenone-inhibitable NADH oxidation (320 nm; ε=6.22 mM-1 cm-1). […]

[2] = Ascorbate quantification in mouse plasma, tumor and CSF after IP ascorbate; assay type: in vivo, mice
Protocol: Tumor xenografts were excised and flash frozen in liquid nitrogen until analysis. Mouse whole blood was collected by cardiac puncture, and plasma was collected after the sample was centrifuged at 500 g for 10 min and frozen until analysis. For patient samples, whole blood was collected from clinical trial patients (NaHeparin 75 USP units, BD Vacutainer® green top blood collection tube, 4 mL), and plasma was collected after centrifugation at 500 g for 10 min and aliquoted and stored at −80° C. until analysis.
Tumor xenografts were excised and flash frozen in liquid nitrogen until analysis. Mouse whole blood was collected by cardiac puncture, and plasma was collected after the sample was centrifuged at 500 g for 10 min and frozen until analysis. For patient samples, whole blood was collected from clinical trial patients (NaHeparin 75 USP units, BD Vacutainer® green top blood collection tube, 4 mL), and plasma was collected after centrifugation at 500 g for 10 min and aliquoted and stored at −80° C. until analysis. […] Briefly, samples were extracted in a buffer containing 90% methanol and 10% water with 250 μM DETAPAC (90:10, v/v), mixed, and incubated on ice for 10 min to precipitate protein. The samples were clarified by centrifugation (16 g, 10 min) with an Eppendorf model 5415D Microfuge. Specifically, samples were diluted at a ratio of 50 μL of plasma to 450 μL extraction buffer. These samples were then further diluted another 77.5 to 105-fold (therefore, 775-1,050 fold overall) in a buffer containing 72% methanol and 28% water with 250 μM DETAPAC (72:28, v/v). […] This protocol ensured that all samples had identical methanol content which is critical for accurate quantification (Vislisel et al., 2007). 100 μL aliquots of the samples or standards were placed in 96-well optical bottom black plates (Thermo Fisher Scientific, Rochester, N.Y., USA). The assay was initiated at room temperature by adding 100 μL of 2.3 mM 4-hydroxy-2,2,6,6-tetramethylpiperidinyloxyl (Tempol) in 2 M sodium acetate trihydrate buffer previously adjusted to pH 5.5 with acetic acid. […] Subsequently, 42 μL of 5.5 mM ortho-phenylenediamine (oPDA) in 2 M sodium acetate buffer (pH 5.5) was added to the samples. Kinetic measurements were immediately initiated and collected every 22 s using a TECAN SpectraFluor Plus plate reader (Tecan, Research Triangle Park, N.C., USA) for the fluorescent condensation product of the reaction of oPDA with DHA (3-dihydroxyethyl)furo[3,4-b]quinoxaline-1-one; λex=345 nm, λem=425 nm). […] Briefly, plasma samples were measured spectrophotometrically (265 nm; ε=13,000 M-1 cm-1) using an Implen Nanophotometer P-330 with a 250× dilution lid, path length=4.00×10-3 cm. The blank for each sample was a pair-‘pre-infusion’ plasma sample, which allowed removal of the background absorbance of plasma proteins and other constituents.
Briefly, mice were anesthetized (17.5 mg ml^−1 ketamine/2.5 mg ml^−1 xylazine mixture), restrained in a stereotaxic frame with an acute head angle, and the dura mater covering the foramen magnum was surgically exposed. CSF was collected by capillary action following minimal puncture of the dura mater and frozen until EPR analysis. Ascorbyl radical EPR spectra were obtained by placing the capillary tube into the bottom of a 250 mm×3 mm (ID) thin walled quartz EPR tube (707-SQ-250M Wilmad-Lab Glass, Vineland, N.J.) centered in a Bruker HS EPR cavity (Bruker, Billerica, Mass.). […]

HBEpCs [3] = experiment: Cellular labile iron pool (Calcein-AM flow cytometry), HBEpCs; assay type: cell-based, human; details: increasing doses of ascorbate
Protocol: The labile iron pool (LIP) was visualized using the fluorescent dye Calcein-AM as previously described (Epsztejn et al., 1997) with modifications. After labeling, samples were divided into two flow cytometry sample tubes, to which 100 μM 2′,2′-bipyridyl (BIP) was added to one tube and analyzed by flow cytometry. BIP tubes were incubated for at least 15 minutes before analysis to allow for full chelation of intracellular labile iron. The LIP (A.U.)=MFIBIP−MFINoBIP was normalized against the control samples to calculate the relative labile iron pool.
The labile iron pool (LIP) was visualized using the fluorescent dye Calcein-AM as previously described with modifications (Epsztejn et al., 1997). Briefly, after sample treatment, cells were trypsinized, spun at 1,200 rpm for 5 min, and resuspended at approximately 1×10^6 cells mL-1 in 500 nM Calcein-AM in PBS. Samples were incubated for 15 min at 4% O2 in a humidity controlled environment (37° C., 5% CO2). Subsequently, samples were pelleted, washed in PBS, and resuspended in 1 mL PBS before dividing each sample into two flow cytometry sample tubes, to which 100 μM 2′,2′-bipyridyl (BIP) was added to one tube. Samples were kept at room temperature and analyzed on a LSR II Flow Cytometer (BD Biosciences; λex=488 nm, λem=515/20 nm). […]

[4] = Example 1: two hours after last radiation treatment, 4 g/kg IP
[5] = Example 4: 1 h after IP ascorbate 4 g kg^−1, H292 xenograft mice

## O=C1O[C@H]([C@@H](O)CO)C(O)=C1O [ascorbate, L-ascorbic acid]
OCI-MY5
  ascorbate dose giving complete growth inhibition (colony formation): ≥ 10 pmol/cell
HBEpCs [1]
  steady-state levels of H2O2 (PeroxyOrange-1): unchanged
H1299 cells; 1 h ascorbate + 5 μM carboplatin + 2 Gy IR vs Carbo+IR alone
  sensitization to carboplatin + IR (clonogenic survival): significantly increased sensitivity to Carbo+IR; also recorded: selectively sensitized
H1299 cells; ascorbate alone, 1 h exposure
  clonogenic survival / cell killing: more clonogenic cell killing in NSCLC cell lines than chemotherapy plus radiation; also recorded: dose-dependent clonogenic cell killing
ETC complex IV
  ETC complex IV activity: no inhibition of activity
[2]; [4]
  plasma ascorbate concentration vs non-ascorbate treated mice: significantly higher
  tumor ascorbate concentration vs non-ascorbate treated mice: significantly higher
[2]; [5]
  ascorbate level in plasma: significantly increased ascorbate levels
  ascorbate level in tumor: significantly increased ascorbate levels
[2]; Example 4: 1 h after IP ascorbate 4 g kg^−1, healthy nude mice
  ascorbate level in cerebrospinal fluid (ascorbyl radical EPR): significantly increased ascorbate levels
HBEpCs [3]
  cellular LIP after ascorbate: not seen
